The values below come from patent US20230061835A1, “11-OXO CUCURBITANES AND THEIR USE AS FLAVOR MODIFIERS” (Firmenich SA, priority 2020, published 2023).

Assay [1] can be described thus: Sensory testing by trained panel: saltiness taste. To be noted: panel of 20 trained panelists; test compound at 40 ppm; score on scale −5 (strong masking) to 5 (strong enhancing), 0 = reference water solution with 0.25% NaCl and 0.05% MSG. It is filed as in vivo, human. The method, then: (§1) Each of Compound 101, Compound 102, Compound 103, Compound 104, and Compound 105 was tested for taste properties, particularly umami and saltiness. A panel of twenty (20) trained panelists evaluated the samples of each test compound at 40 ppm for umami taste properties and saltiness taste properties, and scored the solutions on a scale ranging from −5 to 5 (with −5 denoting a strong masking effect, and 5 denoting a strong enhancing effect, and 0 representing the intensity of a reference water solution containing 0.25% sodium chloride (NaCl) and 0.05% monosodium glutamate (MSG), respectively).

A short description of assay [2]: Sensory testing by trained panel: umami taste. To be noted: panel of 20 trained panelists; test compound at 40 ppm; score on scale −5 (strong masking) to 5 (strong enhancing), 0 = reference water solution with 0.25% NaCl and 0.05% MSG. In kind it is in vivo, human. The method, then: as §1

As to `C[C@H](CC[C@@H](O[C@@H]1O[C@H](CO)[C@@H](O)[C@H](O)[C@H]1O[C@@H]1O[C@H](CO)[C@@H](O)[C@H](O)[C@H]1O)C(C)(C)O)[C@H]1CC[C@@]2(C)[C@@H]3CC=C4[C@@H](CC[C@H](O[C@@H]5O[C@H](CO)[C@@H](O)[C@H](O)[C@H]5O)C4(C)C)[C@]3(C)C(=O)C[C@]12C` [Compound 104], in assay [1], the Saltiness is on record as −0.08. The Umami in assay [2] is 0.42.
For `C[C@H](CC[C@@H](O[C@@H]1O[C@H](CO)[C@@H](O)[C@H](O)[C@H]1O[C@@H]1O[C@H](CO)[C@@H](O)[C@H](O)[C@H]1O)C(C)(C)O)[C@H]1CC[C@@]2(C)[C@@H]3CC=C4[C@@H](CC[C@H](O[C@@H]5O[C@H](CO[C@@H]6O[C@H](CO)[C@@H](O)[C@H](O)[C@H]6O)[C@@H](O)[C@H](O)[C@H]5O)C4(C)C)[C@]3(C)C(=O)C[C@]12C` [Compound 103], in that order: −0.02 and 0.69.
The like results for `C[C@H](CC[C@@H](O[C@@H]1O[C@H](CO[C@@H]2O[C@H](CO)[C@@H](O)[C@H](O)[C@H]2O)[C@@H](O)[C@H](O)[C@H]1O[C@@H]1O[C@H](CO)[C@@H](O)[C@H](O)[C@H]1O)C(C)(C)O)[C@H]1CC[C@@]2(C)[C@@H]3CC=C4[C@@H](CC[C@H](O[C@@H]5O[C@H](CO[C@@H]6O[C@H](CO)[C@@H](O)[C@H](O)[C@H]6O)[C@@H](O)[C@H](O)[C@H]5O[C@@H]5O[C@H](CO)[C@@H](O)[C@H](O)[C@H]5O)C4(C)C)[C@]3(C)C(=O)C[C@]12C` [Compound 102] were, in that order, 0.87 and 0.47.
The like results for `C[C@H](CC[C@@H](O[C@@H]1O[C@H](CO)[C@@H](O)[C@H](O)[C@H]1O)C(C)(C)O)[C@H]1CC[C@@]2(C)[C@@H]3CC=C4[C@@H](CC[C@H](O[C@@H]5O[C@H](CO)[C@@H](O)[C@H](O)[C@H]5O)C4(C)C)[C@]3(C)C(=O)C[C@]12C` [Compound 105] were, in that order, 0.20 and 0.10.
Take `C[C@H](CC[C@@H](O[C@@H]1O[C@H](CO[C@@H]2O[C@H](CO)[C@@H](O)[C@H](O)[C@H]2O)[C@@H](O)[C@H](O)[C@H]1O[C@@H]1O[C@H](CO)[C@@H](O)[C@H](O)[C@H]1O)C(C)(C)O)[C@H]1CC[C@@]2(C)[C@@H]3CC=C4[C@@H](CC[C@H](O[C@@H]5O[C@H](CO[C@@H]6O[C@H](CO)[C@@H](O)[C@H](O)[C@H]6O)[C@@H](O)[C@H](O)[C@H]5O)C4(C)C)[C@]3(C)C(=O)C[C@]12C` [Compound 101]: in assay [1], the Saltiness is 0.19. The Umami in assay [2] was 0.88.
